Test results taken from patent US20060239926A1, “Specific high-relaxivity compounds” (GUERBET, priority 2003, published 2006).
*: point of attachment. Cbz = O=C(OCc1ccccc1)*; NHOH = ON*

Key:
FBP = conditions: cited from earlier work; for affinity for FBP relative to folic acid: order: pemetrexed>CB3717>IAHQ>2-NH2-ZD1694
[1] = Molar relaxivity (r1, r2) measurement; assay type: physicochemical; conditions: 60 MHz; in water; 2 Gd per mol of product; uncertainty +/−5%
Source text: Since BIO-FOLATE.I has 2 Gd per mol of product, the molar relaxivity values are summarized in this table (uncertainty +/−5%).

[2] = molecular target: T1, Folate Binding Protein (FBP) (Bos taurus, UniProt P02702); assay: Study of affinity with Folate Binding Protein by means of BIAcore 3000
T1 construct: purchased Sigma F-0504
Experimental: (§1) The molar BIO-FOLATE.I relaxivity in water is very good, in particular at 60 MHz: r1=53 mM^−1·s^−1. It is recalled that the relaxivity obtained with specific products of the prior art of the type such as dendrimer associated with folates is r1=9.32 mM^−1s^−1 per Gd (Investigative Radiology, January 2000, vol 35, p 56). • Study of MRI imaging between 30 minutes and 24 hours the contrast at the level of the tumour is very clear, in particular 1 to 2 hours after injection. In addition, Gd assays by ICP-MS; were carried out on the reference organs at the end of the assays using the imager. […] The tumour/muscle ratio is of the order of 4 to 10 times that observed with previously used contrast products. Experimental Conditions for the BIACORE 3000 Studies on P860 and BIO-FOLATE.I (Study of Affinity Between P860, BIO-FOLATE.I, and Folate Binding Protein by Means of BIAcore 3000).
PGM buffer: 100 mM KH2PO4, pH 7, 10% glycerol and 4 mM β-mercaptoethanol
The FBP was immobilized at 1 mg/ml in PGM buffer according to the protocols recommended by BIAcore for coupling amines. Next, the remaining active carboxylated groups are saturated with 1M ethanolamine, pH=8.
The folate binding was followed at four different concentrations (125, 250, 500 and 1000 μM). The association and the dissociation were studied with a flow rate at 30 μl/min. […]

KB tumours = assay: Biodistribution study on nude mice bearing KB tumours
Source text: c. Biodistribution study on nude mice bearing KB tumours: this biodistribution study comprised competition between P860 and free-folic acid. A group of animals received normal food and a co-injection of folic acid with the product tested and another was given a folate-depleted diet through a single injection of the product tested.
Conditions for Biodistribution Study on Nude Mice Part 1: • Induction of subcutaneous tumours in nude female mice and […] of human KB cells. • Separation of the animals into 2 groups receiving a diet with or without folate (10 days). • The group with folate receives an additional injection of folic acid (25 μmol/kg IV) 5 minutes before the injections of contrast product (CP). • IV injection of CP then removal of organ samples (muscle, tumour, liver, kidneys) and plasma samples. Part 2: Assays by ICP-AES • Gd assay (P860, BIO-FOLATE.I, Dotarem): liver, kidney. Part 3: Bioanalysis: Assay by ICP-MS • Gd assay (P860, BIO-FOLATE.I, Dotarem): tumour, muscle, plasma
Supplementing with Folate • 5.5 mM folic acid diluted in PBS and then injected at a dose of 25 μmol/kg (4.54 ml/kg).
Folic acid and CP: IV administration (caudal vein).
The folic acid was injected 5 minutes before the injection of CP.
Results: Tumour Distribution of the PC—Gd

tumours = assay: Study of MRI imaging between 30 minutes and 24 hours with Gd assays by ICP-MS; assay type: in vivo
Experimental: as §1

KB cells = assay: In vitro study of binding/internalization in KB cells; assay type: cell-based, Human; conditions: 37° C., with or without excess free folic acid; ICP-MS assays
human MMP-1 [3] = molecular target: T2, human MMP-1 (Homo sapiens, UniProt P03956); assay: In vitro MMP-inhibiting activity (fluorimetry), MMP-1; assay type: biochemical; conditions: for CONCENTRATION OF PEPTIDE (with significant inhibitory effect): tested at 10^−5, 10^−7 and 10^−9 M with respect to peptides
T2 sequence (P03956 100-469): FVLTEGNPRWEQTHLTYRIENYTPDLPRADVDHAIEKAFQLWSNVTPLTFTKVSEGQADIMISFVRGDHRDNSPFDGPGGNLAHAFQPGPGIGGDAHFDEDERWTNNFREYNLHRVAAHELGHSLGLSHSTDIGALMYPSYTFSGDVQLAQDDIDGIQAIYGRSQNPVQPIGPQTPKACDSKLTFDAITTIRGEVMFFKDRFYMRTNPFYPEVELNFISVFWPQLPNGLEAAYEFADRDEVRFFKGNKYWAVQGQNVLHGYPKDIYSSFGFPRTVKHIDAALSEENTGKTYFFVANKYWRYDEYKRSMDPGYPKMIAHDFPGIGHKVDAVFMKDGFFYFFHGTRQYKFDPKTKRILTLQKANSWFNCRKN
Experimental: The inventors assayed the in vitro activity of the P947 and P967 gadolinium-chelate contrast products functionalized with matrix metalloproteases inhibitors (MMPs), on human MMP-1 and MMP-3. As regards the affinity of the biovector component, on the receptor, the controls were two peptides:
More precisely, the in vitro MMP-inhibiting activity was evaluated in the following way: • 1. Incubation of the test product in the presence of the MMP enzyme, at 37° C., for a defined period of time, and then measurement of the fluorescence of the medium (t=0). • 2. Induction of the enzyme reaction by addition of the substrate to (which becomes fluorescent when it is cleaved by the enzyme), and then incubation at 37° C. for 40 min. A second measurement of fluorescence is then taken (t=40). • 3. The activity of the MMP enzyme is determined by subtraction of the signal measured by fluorimetry: (t=40)-(t=0). • 4. The results are expressed as percentage inhibition of the activity of the control enzyme. • 5. The standard inhibitory product is TIMP-1.
The products were tested in duplicate, at 10^−5, 10^−7 and 10^−9 M with respect to peptides. Those which contain no peptides were treated in a manner similar to the corresponding functionalized contrast products.

human MMP-1 [4] = molecular target: T2, human MMP-1; conditions: value of the peptide component, not of the Gd conjugate, read-out: IC50 OF THE PEPTIDE (LITERATURE); cited from earlier work
αvβ5 = αvβ5 (Homo sapiens, UniProt P06756+P18084); conditions: cited from earlier work
α5β1 = α5β1 (Homo sapiens, UniProt P05556+P08648); conditions: cited from earlier work
Chain of α5β1 (P08648 42-894 limits assumed): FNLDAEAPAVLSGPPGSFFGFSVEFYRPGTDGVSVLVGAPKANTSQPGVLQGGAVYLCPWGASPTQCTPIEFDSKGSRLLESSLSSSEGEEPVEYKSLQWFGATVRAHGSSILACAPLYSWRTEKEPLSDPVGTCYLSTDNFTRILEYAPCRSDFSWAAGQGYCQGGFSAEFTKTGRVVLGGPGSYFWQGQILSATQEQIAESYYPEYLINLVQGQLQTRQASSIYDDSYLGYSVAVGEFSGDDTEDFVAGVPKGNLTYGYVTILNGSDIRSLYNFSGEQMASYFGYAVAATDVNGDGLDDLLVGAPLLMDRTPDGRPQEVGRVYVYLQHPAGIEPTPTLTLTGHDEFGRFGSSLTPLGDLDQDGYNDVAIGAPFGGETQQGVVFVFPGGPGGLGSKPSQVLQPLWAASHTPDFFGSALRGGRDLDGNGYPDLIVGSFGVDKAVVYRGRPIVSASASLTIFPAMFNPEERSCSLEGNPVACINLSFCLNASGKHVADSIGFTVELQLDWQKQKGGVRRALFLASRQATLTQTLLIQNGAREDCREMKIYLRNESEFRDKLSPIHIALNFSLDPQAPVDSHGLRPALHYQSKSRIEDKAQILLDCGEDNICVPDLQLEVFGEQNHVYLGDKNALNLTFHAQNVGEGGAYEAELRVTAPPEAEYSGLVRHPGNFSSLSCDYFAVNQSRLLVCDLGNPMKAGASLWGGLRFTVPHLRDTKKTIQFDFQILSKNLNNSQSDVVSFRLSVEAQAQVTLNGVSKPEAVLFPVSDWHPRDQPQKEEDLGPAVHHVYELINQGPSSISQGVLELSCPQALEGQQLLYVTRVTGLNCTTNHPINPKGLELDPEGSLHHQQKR
Chain of α5β1 (P08648 895-1049 partner limits assumed): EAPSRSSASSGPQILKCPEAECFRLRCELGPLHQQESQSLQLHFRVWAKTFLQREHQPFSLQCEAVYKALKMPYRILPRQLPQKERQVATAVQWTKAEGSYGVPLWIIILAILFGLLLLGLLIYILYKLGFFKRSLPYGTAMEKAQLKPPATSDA
Chain of α5β1 (P05556 21-798): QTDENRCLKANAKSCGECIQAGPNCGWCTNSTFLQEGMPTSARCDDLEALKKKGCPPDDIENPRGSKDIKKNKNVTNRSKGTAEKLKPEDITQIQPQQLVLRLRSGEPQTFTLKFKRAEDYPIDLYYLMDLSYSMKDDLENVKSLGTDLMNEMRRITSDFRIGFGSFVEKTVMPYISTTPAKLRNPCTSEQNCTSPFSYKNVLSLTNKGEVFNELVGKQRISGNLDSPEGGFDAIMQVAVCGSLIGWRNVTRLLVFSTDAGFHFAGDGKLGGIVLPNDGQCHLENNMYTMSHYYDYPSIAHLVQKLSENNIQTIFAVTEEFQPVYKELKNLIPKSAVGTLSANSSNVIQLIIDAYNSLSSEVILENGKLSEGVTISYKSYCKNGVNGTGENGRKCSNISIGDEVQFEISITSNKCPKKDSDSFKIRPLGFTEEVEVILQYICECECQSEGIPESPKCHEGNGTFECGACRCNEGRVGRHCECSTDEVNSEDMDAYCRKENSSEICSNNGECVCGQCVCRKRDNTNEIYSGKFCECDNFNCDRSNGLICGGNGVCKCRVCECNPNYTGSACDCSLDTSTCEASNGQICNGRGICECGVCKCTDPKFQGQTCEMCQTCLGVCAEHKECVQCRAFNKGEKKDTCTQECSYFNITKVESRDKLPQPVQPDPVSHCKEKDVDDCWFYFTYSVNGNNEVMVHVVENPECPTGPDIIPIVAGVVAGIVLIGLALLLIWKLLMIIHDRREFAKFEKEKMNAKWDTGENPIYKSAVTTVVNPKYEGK

Chain of αvβ5 (P06756 31-889 limits assumed): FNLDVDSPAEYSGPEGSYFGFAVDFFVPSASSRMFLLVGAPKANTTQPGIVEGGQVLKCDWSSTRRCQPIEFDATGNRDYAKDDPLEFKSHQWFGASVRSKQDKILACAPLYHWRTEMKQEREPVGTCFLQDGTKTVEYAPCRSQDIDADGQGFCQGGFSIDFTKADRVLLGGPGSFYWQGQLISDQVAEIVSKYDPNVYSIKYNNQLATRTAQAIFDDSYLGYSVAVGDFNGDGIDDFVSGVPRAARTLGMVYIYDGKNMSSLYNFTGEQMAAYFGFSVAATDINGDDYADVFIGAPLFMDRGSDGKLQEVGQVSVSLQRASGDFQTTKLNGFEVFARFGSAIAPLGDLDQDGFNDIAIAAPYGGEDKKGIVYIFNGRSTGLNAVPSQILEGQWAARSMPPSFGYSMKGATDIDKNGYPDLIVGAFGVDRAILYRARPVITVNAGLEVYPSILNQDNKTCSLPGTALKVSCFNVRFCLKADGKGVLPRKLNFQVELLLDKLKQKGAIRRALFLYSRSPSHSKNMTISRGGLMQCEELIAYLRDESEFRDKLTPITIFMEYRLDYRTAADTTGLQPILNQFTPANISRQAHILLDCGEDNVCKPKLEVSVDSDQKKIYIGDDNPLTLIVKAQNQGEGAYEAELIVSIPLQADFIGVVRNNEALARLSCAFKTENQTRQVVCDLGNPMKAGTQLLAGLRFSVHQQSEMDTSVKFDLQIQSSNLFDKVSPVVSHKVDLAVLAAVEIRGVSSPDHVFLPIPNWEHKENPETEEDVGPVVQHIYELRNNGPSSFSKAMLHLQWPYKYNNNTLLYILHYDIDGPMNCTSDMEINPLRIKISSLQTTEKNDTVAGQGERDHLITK
Chain of αvβ5 (P06756 891-1048 partner limits assumed): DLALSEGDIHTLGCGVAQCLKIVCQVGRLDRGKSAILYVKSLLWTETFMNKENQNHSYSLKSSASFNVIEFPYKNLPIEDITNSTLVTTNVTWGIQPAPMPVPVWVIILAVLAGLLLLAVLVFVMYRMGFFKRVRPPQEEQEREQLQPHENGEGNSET
Chain of αvβ5 (P18084 24-799): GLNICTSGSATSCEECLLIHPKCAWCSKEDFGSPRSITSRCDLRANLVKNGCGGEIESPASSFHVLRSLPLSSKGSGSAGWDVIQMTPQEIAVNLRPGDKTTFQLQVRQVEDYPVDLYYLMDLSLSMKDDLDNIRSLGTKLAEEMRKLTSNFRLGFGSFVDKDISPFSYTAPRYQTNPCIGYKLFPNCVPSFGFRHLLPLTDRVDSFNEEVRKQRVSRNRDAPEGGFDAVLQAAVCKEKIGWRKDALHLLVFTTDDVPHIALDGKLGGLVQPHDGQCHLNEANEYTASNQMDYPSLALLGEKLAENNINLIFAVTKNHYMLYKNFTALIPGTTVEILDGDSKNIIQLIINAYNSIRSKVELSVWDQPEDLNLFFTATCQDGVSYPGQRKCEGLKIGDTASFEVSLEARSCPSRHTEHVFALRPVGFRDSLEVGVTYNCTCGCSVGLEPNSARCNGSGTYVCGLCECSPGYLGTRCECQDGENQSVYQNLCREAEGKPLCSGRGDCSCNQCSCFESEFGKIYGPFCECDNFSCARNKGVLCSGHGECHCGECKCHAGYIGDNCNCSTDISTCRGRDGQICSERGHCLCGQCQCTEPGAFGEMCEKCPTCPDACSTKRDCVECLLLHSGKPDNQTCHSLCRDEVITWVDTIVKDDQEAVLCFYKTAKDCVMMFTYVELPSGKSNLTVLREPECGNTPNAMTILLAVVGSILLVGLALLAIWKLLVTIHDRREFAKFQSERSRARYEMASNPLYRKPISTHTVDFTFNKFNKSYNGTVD
T1 sequence (P02702 20-234): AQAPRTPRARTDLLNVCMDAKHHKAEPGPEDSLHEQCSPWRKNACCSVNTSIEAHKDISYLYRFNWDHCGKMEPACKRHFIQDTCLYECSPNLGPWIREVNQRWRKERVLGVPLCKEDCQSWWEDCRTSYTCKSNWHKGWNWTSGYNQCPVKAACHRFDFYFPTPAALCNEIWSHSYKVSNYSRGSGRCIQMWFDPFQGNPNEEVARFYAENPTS

## NC1=NC2=C(S[C@H](CCc3ccc(C(=O)N[C@@H](CCC(=O)O)C(=O)O)s3)CN2)C(O)N1 (some centres unmarked)
FBP
  Kd: 0.0032 nM

## Nc1nc2ncc(CNc3ccc(C(=O)N[C@@H](CCC(=O)NCCCOCCOCCOCCCNc4c(NCCOCCOCCNc5nc(Nc6ccc(CCC(C(=O)O)N7CCN(C(CCC(=O)NCC(=O)Nc8c(Br)c(C(=O)N(CC(O)C(O)C(O)C(O)CO)CC(O)C(O)C(O)C(O)CO)c(Br)c(C(=O)N(CC(O)C(O)C(O)C(O)CO)CC(O)C(O)C(O)C(O)CO)c8Br)C(=O)O)CCN(C(CCC(=O)NCC(=O)Nc8c(Br)c(C(=O)N(CC(O)C(O)C(O)C(O)CO)CC(O)C(O)C(O)C(O)CO)c(Br)c(C(=O)N(CC(O)C(O)C(O)C(O)CO)CC(O)C(O)C(O)C(O)CO)c8Br)C(=O)O)CCN(C(CCC(=O)NCC(=O)Nc8c(Br)c(C(=O)N(CC(O)C(O)C(O)C(O)CO)CC(O)C(O)C(O)C(O)CO)c(Br)c(C(=O)N(CC(O)C(O)C(O)C(O)CO)CC(O)C(O)C(O)C(O)CO)c8Br)C(=O)O)CC7)cc6)nc(Nc6ccc(CCC(C(=O)O)N7CCN(C(CCC(=O)NCC(=O)Nc8c(Br)c(C(=O)N(CC(O)C(O)C(O)C(O)CO)CC(O)C(O)C(O)C(O)CO)c(Br)c(C(=O)N(CC(O)C(O)C(O)C(O)CO)CC(O)C(O)C(O)C(O)CO)c8Br)C(=O)O)CCN(C(CCC(=O)NCC(=O)Nc8c(Br)c(C(=O)N(CC(O)C(O)C(O)C(O)CO)CC(O)C(O)C(O)C(O)CO)c(Br)c(C(=O)N(CC(O)C(O)C(O)C(O)CO)CC(O)C(O)C(O)C(O)CO)c8Br)C(=O)O)CCN(C(CCC(=O)NCC(=O)Nc8c(Br)c(C(=O)N(CC(O)C(O)C(O)C(O)CO)CC(O)C(O)C(O)C(O)CO)c(Br)c(C(=O)N(CC(O)C(O)C(O)C(O)CO)CC(O)C(O)C(O)C(O)CO)c8Br)C(=O)O)CC7)cc6)n5)c(=O)c4=O)C(=O)O)cc3)nc2c(=O)[nH]1 (some centres unmarked) [BIO-FOLATE.I]
[1]
  molar r1: 53 mM⁻¹ s⁻¹
[2]
  binding to FBP (folate binding protein) in vitro: binds specifically to FBP
KB tumours; 15 μmol/kg
  accumulation in the tumours: excellent accumulation
KB tumours; competition with free folate, times 4 and 24 h
  decrease of product in the tumour by folic acid: 2 times less
KB tumours; female, nude, mouse, in vivo, iv
  injected dose found in the tumour: 5-8%
KB tumours; folate-free diet, at 4 h
  injected theoretical dose found in the tumours: 14%
KB tumours; folate-free diet, at 72 h
  injected theoretical dose found in the tumours: 7%
KB tumours; free folic at 25 μmol/kg before the product
  effect of prior injection of free folic acid on tumour Gd: decrease the Gd concentrations assayed in the tumours
KB tumours; in vivo studies (biodistribution, MRI)
  activity in vivo: P860 is inactive in vivo unlike BIO-FOLATE.I and BIO-FOLATE.II
tumours; between 30 minutes and 24 hours, in particular 1 to 2 hours after injection
  contrast at the level of the tumour (MRI): very clear
tumours; versus products of the prior art
  heightening of the tumours, duration: longer lasting than with products of the prior art
KB cells
  amount of product specifically bound and internalized in KB cells: Correct capture

## C#CCN(Cc1ccc2nc(N)[nH]c(=O)c2c1)c1ccc(C(=O)N[C@@H](CCC(=O)O)C(=O)O)cc1 [CB3717]
FBP
  affinity for FBP relative to folic acid: affinity greater than folic acid

## CNC[C@H](O)[C@@H](O)[C@H](O)[C@H](O)CO.O=C([O-])CN1CCN(CC(=O)[O-])CCN(CC(=O)O)CCN(CC(=O)[O-])CC1.[Gd+3] [Dotarem]
KB tumours; mouse, in vivo
  injected theoretical dose found in the tumours: 1-2%
  intratumour amounts corrected for g of tissue: negligable beyond 4 h

## CN(Cc1ccc2nc(N)[nH]c(=O)c2c1)c1ccc(C(=O)NC(CCC(=O)O)C(=O)O)s1 (centres unmarked) [Example 2-NH2-ZD1694]
FBP
  affinity for FBP relative to folic acid: affinity greater than folic acid

## CC(C)C[C@@H](NC(=O)[C@@H]1CCCN1C(=O)CNC(=O)c1ccc(NC(=S)Nc2ccc(CCC(C(=O)O)N3CCN(CC(=O)O)CCN(CC(=O)O)CCN(CC(=O)O)CC3)cc2)cc1)C(=O)N[C@@H](C)C(=O)NO (some centres unmarked) [Example P947]
Human MMP-1 [3]; concentration of peptide 10^−5M
  SIGNIFICANT INHIBITORY EFFECT: 86%
Human MMP-1 [3]
  CONCENTRATION OF PEPTIDE (with significant inhibitory effect): 10^−5M
Human MMP-1 [4]
  IC50: 1000 nM

## Nc1nc2ccc(NCc3ccc(C(=O)N[C@@H](CCC(=O)O)C(=O)O)cc3)cc2c(=O)[nH]1 [IAHQ]
FBP
  affinity for FBP relative to folic acid: affinity greater than folic acid

## Nc1nc(O)c2c(CCc3ccc(C(=O)N[C@@H](CCC(=O)O)C(=O)O)cc3)c[nH]c2n1 [pemetrexed]
FBP
  affinity for FBP relative to folic acid: affinity greater than folic acid

## Cbz-Pro-Leu-Gly-{NHOH} [PEPTIDE A]
Human MMP-1 [3]
  CONCENTRATION OF PEPTIDE (with significant inhibitory effect): >10^−5M
Human MMP-1 [4]
  IC50: 40000 nM

## cyclo(ARGD-Mamb) [XJ735]
αvβ5
  blocking of αvβ5: does not block
α5β1
  blocking of α5β1: does not block
